{"source": "patent US20070191493A1", "about": "“Use of n-alkanols as activators of the cftr channel” (priority 2003, published 2007)", "key": {"[1]": {"tested_on": "CHO cells", "experiment": "ATP-induced calcium response (cellular uncoupling) in CHO cells", "format": "cell-based, Chinese hamster", "details": "α-GA 10 to 100 μM, octan-1-ol 1 mM", "protocol": "The Ca^2+ measurements are carried out in the presence of fura-2 (impermeant fluorescent probe) which binds […]. The cells are incubated in serum-free DMEM/F12 culture medium in the presence of the permeant form of fura-2 (fura-2/AM, 2.5 μM) for 1 h at 37° C. The cells, placed on the platform of an epifluorescent microscope (Olympus) (20× objective), are perfused with the solutions to be tested (e.g. ATP, octanol). They are sequentially illuminated at 340 nm and 380 nm and the fluorescence emitted (F) is measured at 510 nm. It is detected via a 12-bit CCD camera (Sony) connected to a data processing computer unit (TILL Photonics). The intracellular Ca^2+ concentration [Ca^2+]i is calculated using the Grynckiewicz equation (Grynckiewicz et al., 1985): [Ca^2+]i=Kdi *(R−Rmin/Rmax−R), based on the ratiometric analysis R (340/380 nm) of the fluorescence (TILL Vision); Rmax and Rmin denote the ratio of fluorescence measured in the presence or in the absence of Ca^2+."}, "[2]": {"target": "CFTR channel (Homo sapiens, UniProt P13569)", "sequence (P13569 whole entry)": "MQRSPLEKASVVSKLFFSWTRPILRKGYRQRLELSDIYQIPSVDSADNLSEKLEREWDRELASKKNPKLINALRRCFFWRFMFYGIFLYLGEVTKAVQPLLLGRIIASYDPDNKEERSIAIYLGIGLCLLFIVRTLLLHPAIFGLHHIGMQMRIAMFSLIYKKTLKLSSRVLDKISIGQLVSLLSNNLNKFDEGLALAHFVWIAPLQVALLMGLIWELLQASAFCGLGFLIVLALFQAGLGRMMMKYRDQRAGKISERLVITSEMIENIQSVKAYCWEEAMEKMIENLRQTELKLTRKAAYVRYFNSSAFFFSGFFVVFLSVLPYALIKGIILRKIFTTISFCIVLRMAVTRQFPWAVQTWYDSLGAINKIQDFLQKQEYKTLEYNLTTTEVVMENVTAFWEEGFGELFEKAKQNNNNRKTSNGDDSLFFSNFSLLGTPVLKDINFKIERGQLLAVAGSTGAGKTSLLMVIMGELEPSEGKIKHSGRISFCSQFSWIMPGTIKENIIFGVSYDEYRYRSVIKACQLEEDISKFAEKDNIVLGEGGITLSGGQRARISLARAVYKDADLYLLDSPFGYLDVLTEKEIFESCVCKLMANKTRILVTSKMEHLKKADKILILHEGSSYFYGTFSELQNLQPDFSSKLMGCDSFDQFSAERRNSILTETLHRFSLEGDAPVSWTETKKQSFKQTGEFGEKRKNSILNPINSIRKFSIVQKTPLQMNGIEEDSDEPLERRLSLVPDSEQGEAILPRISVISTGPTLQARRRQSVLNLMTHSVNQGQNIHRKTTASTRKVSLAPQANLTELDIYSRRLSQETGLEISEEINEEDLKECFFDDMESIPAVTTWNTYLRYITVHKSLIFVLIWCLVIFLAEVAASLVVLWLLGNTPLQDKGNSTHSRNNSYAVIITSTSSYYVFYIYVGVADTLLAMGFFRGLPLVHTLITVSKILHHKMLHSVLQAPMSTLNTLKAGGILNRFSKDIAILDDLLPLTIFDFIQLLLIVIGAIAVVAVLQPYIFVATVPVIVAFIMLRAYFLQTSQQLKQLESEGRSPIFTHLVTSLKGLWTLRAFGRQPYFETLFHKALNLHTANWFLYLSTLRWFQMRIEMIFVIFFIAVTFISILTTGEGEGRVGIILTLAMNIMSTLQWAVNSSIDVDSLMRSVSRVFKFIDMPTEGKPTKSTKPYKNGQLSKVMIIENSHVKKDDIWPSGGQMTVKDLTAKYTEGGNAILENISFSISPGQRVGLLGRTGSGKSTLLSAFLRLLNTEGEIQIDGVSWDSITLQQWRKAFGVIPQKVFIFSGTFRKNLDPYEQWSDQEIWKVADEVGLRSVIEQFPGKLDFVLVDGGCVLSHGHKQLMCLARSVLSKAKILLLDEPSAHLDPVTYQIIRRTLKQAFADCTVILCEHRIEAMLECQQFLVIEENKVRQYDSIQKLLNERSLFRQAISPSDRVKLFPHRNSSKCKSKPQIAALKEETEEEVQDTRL", "experiment": "125I radioactive iodide efflux in CHO-CFTR(+) cells", "format": "cell-based", "parameters": "expressed in transfected cells; host or cells: CHO (Chinese hamster ovary) cells, CHO-CFTR(+)", "details": "CHO-CFTR(+) cells; n-alkanols 1 mM, FSK 1 μM, A23187 2 μM, α-GA 10 and 100 μM", "protocol": "The cells are cultured in 24-well plates with a dilution to 1/10 after passage. […] The operation is repeated every 30 s for 2 to 6 min. […] All the samples are counted in a gamma counter (Kontron). The precipitated proteins are solubilized in 0.1N NaOH and quantified using a calorimetric test.\nThe tracer contained in the cell layer at the beginning of the efflux is calculated as the sum of the samples and of the extracts counted. The efflux curves are constructed by expressing the percentage of the content remaining in the cell layer (I %) with respect to time. The stimulated or nonstimulated efflux rate constants (k, min^−1) are determined by smoothing the efflux curves to a monoexponential function I %=100*exp(−kt) using a linear regression of the neperian logarithm of the data, k is used to calculate the iodide released into the medium with respect to time. The hypothesis is made that, in the presence of a stimulator, the efflux is the sum of two iodide effluxes occurring in parallel: a basal efflux and a stimulated efflux characterized, respectively, by the constants kb and ks. The total net efflux is then described by the equation It^%=100*(1−exp(−ktt)) where kt is the sum of kb and ks. Finally, ks calculated as kt−kb is used to establish a dose-response relationship for antagonists. The data is expressed as means ±SD, and the t-test is used to determine the significances. The concentration-response curves for agonists or for antagonists are smooth using the hyperbolic equation Y=Ymax*X/(EC5C+X), where Y is the response. Y begins at the basal level and progresses to the plateau (Ymax), X is the concentration and the half-effect values (EC are calculated using GraphPad Prism v3.0 (GraphPad software))."}}, "data": [{"molecule": "CC1(C)[C@@H](O)CC[C@]2(C)[C@H]3C(=O)C=C4[C@H]5C[C@@](C)(C(=O)O)CC[C@]5(C)CC[C@@]4(C)[C@]3(C)CC[C@@H]12", "note": "[α-GA, 18-alpha glycerrhetinic acid, reference compound]", "values": [{"measurement": "cellular uncoupling shown by ATP-induced calcium response", "setting": "[1]", "value": "clearly uncouples the cells"}, {"measurement": "activation of CFTR (125I efflux), in words", "setting": "[2]", "value": "no effect"}]}]}
